In one assay the target is Bla (Escherichia coli, UniProt P62593). The following applies: cited from earlier work.
The subject of assay [1] is Bla-stably-transfected C6 glioma cells. Kind of assay: Fluorescence imaging of Bla activity in living cells. It is filed as cell-based. The following applies: loaded in Hank's Balanced Salts Solution 25 min, room temperature; excitation 540/25, emission 635/55. The procedure:
FIG. 13A illustrates the structures of CR2 and CR2/AM. FIG. 13B presents fluorescence images (40×magnification) of wild type (right) and Bla-stably-transfected (left) C6 glioma cells loaded with CR2/AM in Hank's Balanced Salts Solution for 25 min at room temperature. The excitation filter was set at 540/25 (540 nm peak with a width of 25 nm around the peak). The emission filter was set at 635/55.

SMILES strings stand for the structures.

Sequence of Bla (P62593 24-286 limits assumed): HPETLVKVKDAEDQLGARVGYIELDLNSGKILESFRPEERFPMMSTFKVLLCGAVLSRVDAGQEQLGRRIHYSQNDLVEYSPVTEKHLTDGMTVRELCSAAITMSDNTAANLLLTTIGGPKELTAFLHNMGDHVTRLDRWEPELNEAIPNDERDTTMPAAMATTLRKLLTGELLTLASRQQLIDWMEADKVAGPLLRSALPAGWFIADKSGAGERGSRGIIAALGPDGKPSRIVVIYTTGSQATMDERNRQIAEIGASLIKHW

What is called Km is the concentration of substrate that gives half-maximal velocity. In general, kcat refers to the number of substrate molecules converted per active site and unit of time at saturation. As to `O=C(CNC(=O)c1cc2cc(Cl)c(O)cc2oc1=O)N[C@@H]1C(=O)N2C(C(=O)O)=C(CSc3ccc4c(c3)C(=O)OC43c4ccc(O)cc4Oc4cc(O)ccc43)CS[C@H]12` [CCF2], at Bla (Zlokarnik et al., Science 1998), the Km is 23 µM and the kcat is 29 s⁻¹. At Bla (at similar wavelengths (about 460 nm)), the “enhancement of fluorescent emission” value was 20 fold.

As for `CC(=O)OCOC(=O)C1=C(/C=C\COc2ccc3nc4ccc(=O)cc-4oc3c2)C[S@H](O)[C@@H]2[C@H](NC(=O)Cc3cccs3)C(=O)N12` [CR2/AM], the “imaging of Bla activity in living cells” value in assay [1] was “able to image the Bla activity”.

(Values after patent US7427680B2, “Fluorogenic substrates for BETA-lactamase gene expression” (The Regents of the University of California, priority 2001, dated 2008).)
